# Where two headings read alike, the source gives them in different places.
# How the values were obtained:
# σ1 receptors = biological target: T1, σ1 receptors (Cavia porcellus, UniProt Q60492); assay: In vitro binding to σ1 receptors: inhibition of [3H](+)-pentazocine binding to guinea pig brain homogenates
# T1 construct: from tissue; host or cells: guinea pig brain homogenate (per the earlier reading's assay description)
# Description: (§1) The ability to bind to sigma-1 or sigma-2 can be measured using methods currently known to those of skill in the art or using those techniques described in U.S. application Ser. No. 60/013717, filed Mar. 30, 1996; in U.S. application Ser. No. 09/142935, filed Sep. 17, 1998; or in U.S. application Ser. No. 09/528398, filed Mar. 20, 2000.
# σ2 receptors = biological target: T2, σ2 receptors (Rattus norvegicus, UniProt Q5U3Y7); assay: In vitro binding to σ2 receptors: inhibition of [3H]DTG binding to rat liver homogenates
# T2 construct: from tissue; host or cells: rat liver homogenate (per the earlier reading's assay description)
# T2 sequence (Q5U3Y7 1-176): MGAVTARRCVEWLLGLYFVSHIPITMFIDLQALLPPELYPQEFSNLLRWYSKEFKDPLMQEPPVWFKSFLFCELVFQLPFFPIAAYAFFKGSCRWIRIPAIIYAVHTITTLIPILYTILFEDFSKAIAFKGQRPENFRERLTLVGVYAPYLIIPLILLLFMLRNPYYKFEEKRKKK
# Description: as §1
# [1] = Table II, footnote a not given, read-out: σ1 (binding to σ1 receptors)
# [2] = Table II, footnote b not given, read-out: σ2 (binding to σ2 receptors)
# [3] = Table I, guinea pig brain homogenates (n = 3-5), read-out: σ1: Ki for inhibition of the binding of [3H](+)-pentazocine
# T1 sequence (Q60492 whole entry): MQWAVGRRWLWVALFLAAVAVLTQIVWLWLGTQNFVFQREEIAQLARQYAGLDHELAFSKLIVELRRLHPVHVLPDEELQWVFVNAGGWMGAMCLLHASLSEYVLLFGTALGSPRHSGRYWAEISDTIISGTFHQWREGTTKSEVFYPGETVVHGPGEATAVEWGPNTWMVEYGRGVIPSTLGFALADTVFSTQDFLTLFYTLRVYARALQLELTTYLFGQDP
Compound,Ki (σ1 receptors) [nM],Ki (σ2 receptors) [nM],Ki (σ1 receptors; [1]) [nM],Ki (σ2 receptors; [2]) [nM],Ki (σ1 receptors; [3]) [nM]
"COc1ccc(C)cc1NC(=O)OC1CC2CCCC(C1)N2Cc1ccccc1 (stereo not shown) [—, reference compound]",92.5 ± 11,3.06 ± 0.83,–,–,–
COc1ccc(C)cc1NC(=O)OC1CC2CCCC(C1)N2CCc1ccc(NC(=O)OC(C)(C)C)cc1 (stereo not shown) [Compound 7b],–,–,> 1000,> 1000,–
COc1ccc(C)cc1NC(=O)OC1CC2CCCC(C1)N2CCCCCCCc1ccccc1 (stereo not shown) [Compound 6f],–,7.6 ± 0.18,–,–,230 ± 28.6
COc1ccc(C)cc1NC(=O)OC1CC2CCCC(C1)N2CCCc1ccc(N)cc1 (stereo not shown),–,10.5,–,–,–
COc1ccc(C)cc1NC(=O)OC1CC2CCCC(C1)N2CCc1ccc(N)cc1 (stereo not shown) [Compound 7c],–,7.78 ± 0.61,> 1000,–,–
COc1ccc(C)cc1NC(=O)OC1CC2CCCC(C1)N2CCCCCc1ccccc1 (stereo not shown) [Compound 6d],17.3 ± 1.2,1.82 ± 0.19,–,–,–
COc1ccc(C)cc1NC(=O)OC1CC2CCCC(C1)N2CCCCc1ccccc1 (stereo not shown) [Compound 6c],65.5 ± 4.3,2.92 ± 0.21,–,–,–
COc1ccc(C)cc1NC(=O)OC1CC2CCCC(C1)N2CCCc1ccccc1 (stereo not shown) [Compound 6b],72.9 ± 1.6,1.97 ± 0.12,–,–,–
COc1ccc(C)cc1NC(=O)OC1CC2CCCC(C1)N2CCc1ccc(I)cc1 (stereo not shown) [Compound 7a],–,–,175 ± 6.71,141 ± 8.36,–
COc1ccc(C)cc1NC(=O)OC1CC2CCCC(C1)N2CCc1ccccc1 (stereo not shown) [Compound 6a],59.9 ± 4.6,1.2 ± 0.1,–,–,–
COc1ccc(C)cc1NC(=O)OC1CC2CCCC(C1)N2C/C=C/c1ccc(N)cc1 (stereo not shown),–,3.6,–,–,–
COc1ccc(C)cc1NC(=O)OC1CC2CCCC(C1)N2CCCCCCc1ccccc1 (stereo not shown) [Compound 6e],–,7.61 ± 0.41,–,–,214 ± 23.5
